Values quoted from earlier work in patent US20060078615A1, “Bilayer tablet of telmisartan and simvastatin” (Boehringer Ingelheim International GmbH, priority 2004, published 2006).

Details: physiological pH range of the gastrointestinal tract, pH 1 to 7; free acid form

solubility in aqueous systems: very poor solubility
Structure (SMILES): CCCc1nc2c(C)cc(-c3nc4ccccc4n3C)cc2n1Cc1ccc(-c2ccccc2C(=O)O)cc1 [Telmisartan, 4′-[2-n-propyl-4-methyl-6-(1-methylbenzimidazol-2-yl)benzimidazol-1-ylmethyl]biphenyl-2-carboxylic acid]
